Our source for the EC50 values is patent US20090137577A1, “HETEROCYCLIC COMPOUNDS” (Pfizer Inc., priority 2007, published 2009).

Structures are written as SMILES.

T1 sequence (Q14416 19-872, species assumed): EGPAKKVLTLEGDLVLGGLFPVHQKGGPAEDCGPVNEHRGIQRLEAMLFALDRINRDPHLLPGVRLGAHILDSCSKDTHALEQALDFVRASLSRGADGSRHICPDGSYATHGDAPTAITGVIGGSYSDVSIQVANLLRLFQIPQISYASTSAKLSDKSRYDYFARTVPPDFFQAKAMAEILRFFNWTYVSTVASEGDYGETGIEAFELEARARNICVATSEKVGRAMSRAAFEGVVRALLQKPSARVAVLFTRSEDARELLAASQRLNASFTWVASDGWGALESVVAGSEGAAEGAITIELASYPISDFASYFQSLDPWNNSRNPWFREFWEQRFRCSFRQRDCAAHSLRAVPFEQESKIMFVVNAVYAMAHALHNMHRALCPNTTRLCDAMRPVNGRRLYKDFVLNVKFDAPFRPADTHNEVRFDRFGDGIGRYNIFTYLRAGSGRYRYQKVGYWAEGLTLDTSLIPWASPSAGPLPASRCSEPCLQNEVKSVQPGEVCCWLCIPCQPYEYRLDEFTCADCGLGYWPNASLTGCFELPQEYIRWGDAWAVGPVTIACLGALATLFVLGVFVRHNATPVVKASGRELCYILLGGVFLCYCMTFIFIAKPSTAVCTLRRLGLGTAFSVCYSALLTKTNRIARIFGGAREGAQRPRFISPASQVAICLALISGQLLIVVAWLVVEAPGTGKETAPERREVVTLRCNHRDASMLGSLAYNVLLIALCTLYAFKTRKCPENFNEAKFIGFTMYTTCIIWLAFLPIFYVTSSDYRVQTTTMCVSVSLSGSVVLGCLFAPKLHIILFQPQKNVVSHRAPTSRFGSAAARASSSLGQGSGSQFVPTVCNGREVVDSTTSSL

The assay has as its target T1, mGluR2 receptor (metabotropic glutamate receptor 2) (Homo sapiens, UniProt Q14416).
T1 construct: expressed in transfected cells
Briefly: mGluR2 potentiator screen (FLIPR, EC10-EC20 glutamate challenge).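 Note: HEK cells stably expressing human mGluR2 with GL15 G protein, Fluo-4 calcium fluorescence read on FLIPR, compounds added before an EC10-EC20 glutamate challenge to detect potentiation.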 In kind it is cell-based. Conditions: geometric mean; read-out: mGluR 2 EC50 (geometric mean).
Broadly, the EC50 is the concentration at which the effect is half-maximal. As to `CCCOc1ccc(CN2C(=O)O[C@H](c3ccccc3)[C@@H]2C)cc1` [Example 23], the EC50 was 887 nM.
As for `C[C@H]1[C@@H](c2ccccc2)OC(=O)N1Cc1ccc(OCC2CCC2)cc1` [Example 24], the EC50 worked out at 660 nM.
For `COc1ccccc1COc1ccc(CN2CC(C)OC2=O)cc1` (centres unmarked) [Example 118] the value was 89.4 nM; for `O=C1OC(c2ccccc2)CN1Cc1ccc(OCc2ccccn2)cc1` (centres unmarked) [Example 5], 1280 nM; for `CC(Oc1ccc(CN2CCN(C(C)CC3CC3)CC2=O)cc1)C1CCCCC1` (centres unmarked) [Example 219], 697 nM.
Regarding `C[C@H]1[C@@H](c2ccccc2)OC(=O)N1Cc1ccc(OCc2cccnc2)cc1` [Example 32], the EC50 came to 245 nM.
For the molecule `O=C1OCCCN1Cc1ccc(OCCC2CCCCC2)cc1` [Example 34], the EC50 amounted to 282 nM.
For `C[C@@H]1CN(Cc2ccc(-c3cc(Cl)cc(Cl)c3)cc2)C(=O)O1` [Example 187, (5R)-3-[(3′,5′-dichlorobiphenyl-4-yl)methyl]-5-methyl-1,3-oxazolidin-2-one] the value was 113 nM; for `O=C1OCCCN1Cc1ccc(OCc2ccccc2)cc1` [Example 31], 1250 nM.
For `Cc1ccc(F)cc1COc1ccc(CN2C[C@@H](C)OC2=O)cc1` [Example 205], the EC50 is 68 nM.
Consider `O=C1OC(c2ccccc2)CN1Cc1ccc(OCc2ccccc2)cc1` (centres unmarked) [Example 8], for which the EC50 is 153 nM.
Turning to `Cc1cc(F)ccc1-c1ccc(CN2C[C@@H](C)OC2=O)cc1` [Example 159], the EC50 was determined as 13.9 nM.
Turning to `CC(Oc1ccc(CN2CCN(CCC(F)(F)F)CC2=O)cc1)C1CCCCC1` (centres unmarked) [Example 222], the EC50 came to 325 nM.
As to `Cc1ccccc1COc1ccc(CN2C[C@@H](C)OC2=O)cc1` [Example 186], the EC50 amounted to 89 nM.
On to `CN(C)CC1CN(Cc2ccc(-c3ccc(F)cc3F)cc2)C(=O)O1` (centres unmarked) [Example 307, 3-[(2′,4′-difluorobiphenyl-4-yl)methyl]-5-[(dimethylamino)methyl]-1,3-oxazolidin-2-one], for which the EC50 was 1360 nM.
On to `CC(C)Oc1ccc(-c2ccc(CN3C[C@@H](C)OC3=O)cc2)c(F)c1` [Example 281], for which the EC50 was 8.14 nM.
Take `CC1CN(Cc2ccc(OCCc3ccccc3)cc2)C(=O)O1` (centres unmarked) [Example 102]: the EC50 amounted to 282 nM.
In the case of `CC1CN(Cc2ccc(OCc3ccc(-n4cccn4)cc3)cc2)C(=O)O1` (centres unmarked) [Example 131], the EC50 is 125 nM.
For `COc1ccc(-c2ccc(CN3C[C@@H](C)OC3=O)cc2)cc1OC` [Example 190], the EC50 came to 676 nM.
Regarding `C[C@@H]1CN(Cc2ccc(-c3ccc(C#N)cc3)cc2)C(=O)O1` [Example 191], the EC50 came out at 166 nM.
For `Cc1cc(CN2C[C@@H](C)OC2=O)cc(C)c1OCc1ccccc1` [Example 184] the value was 964 nM; for `C[C@@H]1CN(Cc2cnc(-c3cccc(F)c3F)c(F)c2)C(=O)O1` [Example 298, (5R)-3-{[6-(2,3-Difluorophenyl)-5-fluoropyridin-3-yl]methyl}-5-methyl-1,3-oxazolidin-2-one], 1360 nM; for `CC1(C)COC(=O)N(Cc2ccc(OCC3CCC3)cc2)C1` [Example 15], 935 nM.
Consider `C[C@@H]1CN(Cc2ccc(-c3nc(C(C)(C)C)cs3)cc2)C(=O)O1` [Example 183], for which the EC50 is 150 nM.
Regarding `C[C@@H]1CN(Cc2ccc(-c3ccc(C(F)(F)F)cc3Cl)cc2)C(=O)O1` [Example 272], the EC50 is 20.1 nM.
As to `CC1CN(Cc2ccc(OCC3CCCC3)cc2)C(=O)O1` (centres unmarked) [Example 90], the EC50 stood at 25.5 nM.
For `C[C@@H]1CN(Cc2ccc(-c3cccc(Cl)c3F)c(F)c2)C(=O)O1` [Example 291, (5R)-3-[(3′-chloro-2,2′-difluorobiphenyl-4-yl)methyl]-5-methyl-1,3-oxazolidin-2-one] the value was 59.6 nM.
Consider `CC(Oc1ccc(CN2CCN(CC3CCCC3)CC2=O)cc1)C1CCCCC1` (centres unmarked) [Example 202], for which the EC50 worked out at 291 nM.
As to `COc1ccc(-c2ccc(CN3C[C@@H](C)OC3=O)cn2)c(F)c1F` [Example 262], the EC50 worked out at 363 nM.
On to `CCc1ccccc1-c1ccc(CN2C[C@@H](C)OC2=O)cc1` [Example 167], for which the EC50 was less than 13.4 nM.
In the case of `CCC(C)CCOc1ccc(CN2CC(C)OC2=O)cc1` (centres unmarked) [Example 94], the EC50 was determined as 42 nM.
As for `CC1CN(Cc2ccc(OCCCc3cccnc3)cc2)C(=O)O1` (centres unmarked) [Example 120], the EC50 came out at 1150 nM.
Regarding `COc1ccc(F)c(-c2ccc(CN3C[C@@H](C)OC3=O)cc2)c1` [Example 240], the EC50 is 120 nM.
For the molecule `CC(C)COc1ccc(CN2CC(C)OC2=O)cc1` (centres unmarked) [Example 20], the EC50 is 979 nM.
As for `CC(Oc1ccc(CN2C(=O)O[C@H](c3ccccc3)[C@@H]2C)cc1)c1ccccc1` (some centres unmarked) [Example 50], the EC50 stood at 263 nM.
`C[C@@H]1CN(Cc2ccc(OCCCOc3ccc(F)cc3)cc2)C(=O)O1` [Example 206]: the EC50 was determined as 29.9 nM.
The figure for `COc1cccc(OC)c1-c1ccc(CN2C[C@@H](C)OC2=O)cc1` [Example 161] is 227 nM.
As for `C[C@@H]1CN(Cc2ccc(-c3cccc(F)c3Cl)cc2F)C(=O)O1` [Example 251], the EC50 is 55.9 nM.
Take `C[C@@H]1CN(Cc2ccc(-c3ccc(C(F)(F)F)cc3F)c(F)c2)C(=O)O1` [Example 292]: the EC50 was 56 nM.
The figure for `CC1CN(Cc2ccc(OCc3ccccc3Cl)cc2)C(=O)O1` (centres unmarked) [Example 117] is 34.5 nM.
For `C[C@@H]1CN(Cc2ccc(CN3CCc4cc(Cl)ccc43)cc2)C(=O)O1` [Example 300, (5R)-3-{4-[(5-Chloro-2,3-dihydro-1H-indol-1-yl)methyl]benzyl}-5-methyl-1,3-oxazolidin-2-one] the value was 94.5 nM.
`CC(C)Oc1ccc(-c2ccc(CN3C[C@@H](C)OC3=O)cn2)c(Cl)c1` [Example 278]: the EC50 came out at 164 nM.
With `C[C@@H]1CN(Cc2ccc(OCCCc3ccccc3)cc2)C(=O)O1` [Example 204, (5R)-5-methyl-3-[4-(3-phenylpropoxy)benzyl]-1,3-oxazolidin-2-one], the EC50 is 24.8 nM.
For `CC1CN(Cc2ccc(OCC3CCC3)cc2)C(=O)O1` (centres unmarked) [Example 14], the EC50 was 178 nM.
Take `CC1CN(Cc2ccc(OCc3cc(F)cc(F)c3)cc2)C(=O)O1` (centres unmarked) [Example 91]: the EC50 was found to be 152 nM.
In the case of `CC1CN(Cc2ccc(O[C@H]3C[C@H]4CC[C@@H]3C4)cc2)C(=O)O1` (some centres unmarked) [Example 123], the EC50 was 22.6 nM.
Regarding `C[C@@H]1CN(Cc2ccc(-c3ccc(N(C)C)nc3)cc2)C(=O)O1` [Example 155], the EC50 was 489 nM.
For `C[C@@H]1CN(Cc2ccc(-c3cc(C#N)ccc3Cl)cc2)C(=O)O1` [Example 231] the value was 683 nM; for `CC(Oc1ccc(CN2CCN(C(C)C3CCC3)CC2=O)cc1)C1CCCCC1` (centres unmarked) [Example 221], 794 nM.
Regarding `CC1CN(Cc2ccc(OCCCn3ccc4ccccc43)cc2)C(=O)O1` (centres unmarked) [Example 149], the EC50 turned out to be 35.8 nM.
In the case of `CC1CN(Cc2ccc(OCCC3CCCC3)cc2)C(=O)O1` (centres unmarked) [Example 92], the EC50 amounted to 10.8 nM.
For `CC(Oc1ccc(CN2CC(c3cccnc3)OC2=O)cc1)C1CCCCC1` (centres unmarked) [Example 208] the value was 41.6 nM; for `CC(Oc1ccc(CN2C(=O)OC[C@@H]3CCCC[C@@H]32)cc1)C1CCCCC1` (some centres unmarked) [Example 37], 2020 nM.
As for `C[C@@H]1CN(Cc2ccc(-c3ccc(C(F)(F)F)cc3C(F)(F)F)cc2)C(=O)O1` [Example 275], the EC50 was 47.4 nM.
Consider `C[C@@H]1CN(Cc2ccc(O[C@H](C)c3ccccc3)cc2)C(=O)O1` [Example 67, (5R)-5-methyl-3-{4-[(1R)-1-phenylethoxy]benzyl}-1,3-oxazolidin-2-one], for which the EC50 stood at 240 nM.
The figure for `C[C@H]1[C@@H](c2ccccc2)OC(=O)N1Cc1ccc(OCc2ccccn2)cc1` [Example 25] is 1760 nM; for `Cc1cc(-c2ccc(CN3C[C@@H](C)OC3=O)cc2)ccc1F` [Example 160] it is 10.6 nM; for `Cc1ccc(Cl)cc1-c1ccc(CN2C[C@@H](C)OC2=O)cn1` [Example 259] it is 1460 nM.
The figure for `CC(C)COc1ccc(CN2CC(c3ccccc3)OC2=O)cc1` (centres unmarked) [Example 6] is 151 nM.
With `CC(Oc1ccc(CN2CCN(CC(C)(C)C)CC2=O)cc1)C1CCCCC1` (centres unmarked) [Example 223], the 50% effective concentration (EC50) turned out to be 584 nM.
As for `COc1ccc(-c2ccc(CN3C[C@@H](C)OC3=O)cc2)c(F)c1F` [Example 242], the EC50 is less than 17.2 nM.
As for `Cc1nc(-c2ccccc2)ncc1COc1ccc(CN2CC(C)OC2=O)cc1` (centres unmarked) [Example 133], the EC50 stood at 120 nM.
`C[C@@H]1CN(Cc2ccc(-c3cccc(F)c3F)c(F)c2)C(=O)O1` [Example 289]: the EC50 was 93.7 nM.
As for `C[C@@H]1CN(Cc2ccc(-c3ccc(F)c(F)c3)cc2)C(=O)O1` [Example 245], the EC50 is 92.9 nM.
For `CC1CN(Cc2ccc(OCCC(C)(C)C)cc2)C(=O)O1` (centres unmarked) [Example 96], the EC50 is less than 14.9 nM.
On to `C[C@@H]1CN(Cc2ccc3c(c2)Cc2ccccc2-3)C(=O)O1` [Example 185], for which the EC50 came out at 625 nM.
Turning to `Cc1cc(Cl)ccc1-c1ccc(CN2C[C@@H](C)OC2=O)cc1` [Example 236], the EC50 was 49 nM.
For the molecule `CC[C@](COc1ccc(CN2CC(C)OC2=O)cc1)(c1ccccc1)N(C)C` (some centres unmarked) [Example 145], the EC50 was 1340 nM.
As for `CC(=O)c1cccc(-c2ccc(CN3C[C@@H](C)OC3=O)cc2)c1` [Example 193], the EC50 is 514 nM.
On to `COc1cccc(CCOc2ccc(CN3CC(C)OC3=O)cc2)c1` (centres unmarked) [Example 105], for which the EC50 amounted to 217 nM.
For the molecule `C[C@@H]1CN(Cc2ccc(OCc3ccc(C(F)(F)F)cc3F)c(F)c2)C(=O)O1` [Example 228, (5R)-3-(3-fluoro-4-{[2-fluoro-4-(trifluoromethyl)benzyl]oxy}benzyl)-5-methyl-1,3-oxazolidin-2-one], the EC50 worked out at 870 nM.
The figure for `CCC[C@H](C)Oc1ccc(CN2CC(C)OC2=O)cc1` (some centres unmarked) [Example 134] is 214 nM; for `CC1CN(Cc2ccc(OCCc3cccc(F)c3)cc2)C(=O)O1` (centres unmarked) [Example 101] it is 188 nM.
Turning to `CC1CN(Cc2ccc(O[C@@H](C)c3ccccc3)cc2)C(=O)O1` (some centres unmarked) [Example 144], the EC50 amounted to 84.8 nM.
